Test results: patent publication US6518424B1, “Substituted pyrimidine compositions and methods of use” (Elan Pharmaceuticals, Inc., priority 1998, dated 2003)

Tests used:
[1] = target: T1, cPLA2 (Homo sapiens, UniProt P47712); assay: cPLA2 enzyme assay using U937 cytosolic extract as enzyme source (release of [14C]-AA from phosphatidylcholine); format: biochemical; conditions: asterisk on compound number in Table I
T1 construct: using cPLA2 enzyme from the cytosolic extraction of U937 cells; endogenous in cells; host or cells: human U937 cells, cytosolic extract (N2 cavitation, 100,000 g supernatant)
T1 sequence (P47712 1-749): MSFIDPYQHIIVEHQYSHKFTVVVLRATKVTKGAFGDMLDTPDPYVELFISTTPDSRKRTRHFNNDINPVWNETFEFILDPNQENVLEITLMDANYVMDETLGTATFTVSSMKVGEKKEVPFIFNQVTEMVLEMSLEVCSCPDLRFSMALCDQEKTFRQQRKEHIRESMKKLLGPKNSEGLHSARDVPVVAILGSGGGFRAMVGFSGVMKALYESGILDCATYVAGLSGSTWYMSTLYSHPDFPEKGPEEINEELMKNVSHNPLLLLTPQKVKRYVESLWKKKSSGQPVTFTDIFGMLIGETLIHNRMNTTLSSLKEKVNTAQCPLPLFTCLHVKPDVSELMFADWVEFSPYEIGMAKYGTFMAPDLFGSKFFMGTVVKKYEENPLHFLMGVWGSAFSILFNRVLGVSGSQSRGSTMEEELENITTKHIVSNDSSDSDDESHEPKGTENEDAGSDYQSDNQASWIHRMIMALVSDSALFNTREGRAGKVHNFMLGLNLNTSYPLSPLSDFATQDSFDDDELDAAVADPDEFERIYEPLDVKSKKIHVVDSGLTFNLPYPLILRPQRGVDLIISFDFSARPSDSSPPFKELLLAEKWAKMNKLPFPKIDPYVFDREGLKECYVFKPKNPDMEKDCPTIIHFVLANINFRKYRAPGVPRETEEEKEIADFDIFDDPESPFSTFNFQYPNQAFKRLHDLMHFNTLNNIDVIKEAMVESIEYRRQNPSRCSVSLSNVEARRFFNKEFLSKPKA
Description: The PLA2 inhibitory properties of the compounds of the present invention were evaluated using the following assays. Inhibition of release of [^14C]-AA from phosphatidylcholine was measured according to standard methods. Human U937 cells were cultured in RPMI 1640 medium supplemented with 10% fetal bovine serum, penicillin, L-glutamine, and HEPES buffer. Cells were harvested and washed 3 times with extraction buffer (140 mM NaCl—5 mM KCl—2 mM EDTA—25 mM Tris pH 7.4) and resuspended at 1×10^8 cells/mL containing 100 μM leupeptin—50 μM pepstatin—1 mM PMSF. Cells were placed in a N2 cavitation bomb and put under pressure at 600 psi or maximum pressure for 20 minutes at 4° C. Cells were then released. The suspension was collected and centrifuged at 100,000 g for 60 minutes at 4° C. The resulting supernatant was collected and filtered through a 0.22 μm filter. Extract was then diluted to 50% glycerol and stored at −20° C.
For the preparation of substrate, 20 nmol of phosphatidylcholine-α-1-palmitoyl-2-arachidonyl-1-[^14C] and 10 nmol 1,2-dioleyl-glycerol were mixed together and dried under a N2 stream. A solution of 1 mL of 150 mM NaCl—50 mM HEPES pH 7.5 was added to the mixture. To reconstitute liposomes, the mixture was sonicated using a Branson 450 sonifier for 2 minutes at 50% duty cycle output level 3 on ice. After sonification, 40 μL of a 100 mg/mL BSA solution was added per mL.
The compounds were first dissolved in DMSO at 2 mM and serially diluted in DMSO by a factor of five for a total of 5 concentrations. These dilutions were further dissolved 60 fold in reaction buffer (150 mM NaCl—50 mM HEPES pH 7.5—1 mM CaCl2—1 mM 2-ME) containing approximately 5% of the U937 cytosolic extract to make up the preincubation mixture which was then incubated for 20 minutes at 37° C. Vehicle control using only DMSO with no compound was also made. To 30 μL of this Extract/compound mixture was added 10 μL of substrate. The 40 μL reaction mixture was incubated for 15 minutes at 37° C., and the reaction was stopped by adding 400 μL Dole's reagent [2-propanol/heptane/0.5 M H2SO4 (40:10:1) 10 μg/mL stearic acid]. This was followed by the addition of 240 μL heptane and 200 μL water. 280 μL of the top heptane layer was transferred to a tube containing […] silica gel with 200 μL heptane and mixed vigorously. Silica gel was then centrifuged at 1000 g for 1 minute. 400 μL of liquid was transferred to scintillation vial along with 4 mL of Beckman Ready Safe scintillation cocktail and mixed. Radioactivity was determined in a Beckman scintillation counter.
The compounds of the present invention were assayed for cPLA2 activity using cPLA2 enzyme from the cytosolic extraction of U937 cells (all procedures carried out on ice). […]

Row | IC50 [1] [nM] | melting point [°C] | SMILES
1 | < 100 | 149 to 154 | CCCc1ccc(C(c2ccccc2)c2cc(O)nc(-c3ccccc3)n2)cc1 (centres unmarked) [Compound 18, 6-((4-n-Propyl)phenyl,phenyl)methyl-2-phenyl-pyrimidine-4-ol]
2 | < 100 | – | CCCc1ccc(C(c2ccccc2)c2cc(O)nc(-c3ccccc3)n2)cc1 (centres unmarked) [Compound 19, 6-((4-Propyl)phenyl,phenyl)methyl-2-phenyl-pyrimidine-4-ol]
3 | < 100 | – | CC(C)Oc1ccc(C(c2ccccc2)c2cc(O)nc(-c3ccccc3)n2)cc1 (centres unmarked) [Compound 21, 6-((4-Isopropoxy)phenyl,phenyl)methyl-2-phenyl-pyrimidine-4-ol]
4 | < 100 | – | CC(C)Oc1ccc(C(c2ccccc2)c2cc(O)nc(-c3ccccc3)n2)cc1 (centres unmarked) [Compound 22, 6-((4-Isopropoxy)phenyl,phenyl)methyl-2-phenyl-pyrimidine-4-ol]
